Measured values: publication PMC4507174, “Sulfonoquinovosyl diacylglyceride selectively targets acute lymphoblastic leukemia cells and exerts potent anti-leukemic effects in vivo” (Scientific Reports, 2015)

Columns and labels:
[1] = target: T1, human DNA topoisomerase I (Homo sapiens, UniProt P11387); assay: oligonucleotide cleavage assay:[…] BA added before […] CPT; assay type: biochemical
T1 construct: gene TOP1
T1 sequence (P11387 2-765): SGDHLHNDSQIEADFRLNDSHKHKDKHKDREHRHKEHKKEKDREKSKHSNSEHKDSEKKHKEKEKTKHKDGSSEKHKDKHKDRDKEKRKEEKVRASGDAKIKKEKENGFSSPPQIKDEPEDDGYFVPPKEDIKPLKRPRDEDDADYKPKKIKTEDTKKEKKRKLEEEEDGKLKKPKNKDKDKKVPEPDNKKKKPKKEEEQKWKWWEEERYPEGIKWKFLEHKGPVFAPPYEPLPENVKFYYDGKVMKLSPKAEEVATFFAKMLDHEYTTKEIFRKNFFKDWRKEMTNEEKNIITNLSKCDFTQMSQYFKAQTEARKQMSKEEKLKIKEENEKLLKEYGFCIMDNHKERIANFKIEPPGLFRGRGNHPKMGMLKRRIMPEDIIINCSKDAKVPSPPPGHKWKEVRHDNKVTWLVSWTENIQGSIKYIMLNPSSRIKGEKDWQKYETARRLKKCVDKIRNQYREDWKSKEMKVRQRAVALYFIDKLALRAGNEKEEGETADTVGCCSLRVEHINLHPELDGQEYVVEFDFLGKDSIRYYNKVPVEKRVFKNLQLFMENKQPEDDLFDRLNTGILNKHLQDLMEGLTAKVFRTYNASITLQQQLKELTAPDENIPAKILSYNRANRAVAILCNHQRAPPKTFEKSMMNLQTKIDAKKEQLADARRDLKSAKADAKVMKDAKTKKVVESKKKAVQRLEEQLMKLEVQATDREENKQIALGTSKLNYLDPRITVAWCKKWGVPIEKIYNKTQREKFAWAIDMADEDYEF

[2] = target: T1, human DNA topoisomerase I; assay: DNA relaxation assay with enzyme preincubation; also EMSA and cleavage assays; assay type: biochemical

| IC100 [2] [µM] | SMILES | oligonucleotide cleavage assay: 20 uM BA added before 20 uM CPT [1] |
| --- | --- | --- |
|  | C=C(C)[C@@H]1CC[C@]2(C(=O)O)CC[C@]3(C)[C@H](CC[C@@H]4[C@@]5(C)CC[C@H](O)C(C)(C)[C@@H]5CC[C@]43C)[C@@H]12 [Betulinic acid] | SQDG/BA abrogates CPT mediated topo I-oligo covalent complex formation |
| 1.5 | CCCCCCCCCCCCCCCC(=O)OC[C@H](CO[C@H]1O[C@H](CS(=O)(=O)O)[C@@H](O)[C@H](O)[C@H]1O)OC(=O)CCCCCCCCCCCCCCC [SQDG] |  |
